Test system: KCNQ channel protein
Experiment: 1D 13C half filtered 1H-1H NMR NOE fragment screening
Assay type: binding, rat
Settings: example of FIG. 3; mono- or di-methylated fragment A of DMP543; KCNQ protein solution
Excerpt: The above-described NMR fragment assembly methods may be utilized to identify ligands for the KCNQ potassium channel, which can be affinity-purified from rat brain extracts using an affinity column with ligands such as DMP543, XE991 or linopirdine, covalently attached to a resin. The KCNQ channel is a membrane-bound protein and is considered large for NMR studies. […] Indeed, such methods have been recently applied to G-protein coupled receptors by using difference spectra in order to remove potential spectral artifacts from NMR experiments from chemical fragments that penetrate the lipid layer (Assadi-Porter et al, 2008). An important variation to that procedure (and inter-ligand NOE studies, as in FIG. 1), which is employed as part of the presently disclosed methods is to chemically place a ^13C labeled methyl group as an NMR reported group (the “NMR probe”), analogous to the antenna in FIG. 1. […] These experiments can be done on a 400 MHz, 500 MHz, 600 MHz or higher field NMR spectrometer, ideally equipped with a cryoprobe (and cryocooled ^13C preamp). […]
As a control in these experiments, the measured NOE or saturation transfer signal might be of the sample (perhaps a tissue extract) that has had the protein target removed (KCNQ in this case), which could be done using an affinity column. […]

Cc1ccnc(F)c1 [2-fluoro-4-methylpyridine]
NOE signal between 13CH3 group of fragment A and methyl group of fragment B (binding within 5 angstroms): can show an NOE signal

Source: patent publication US20100305326A1, “Chemical Fragment Screening and Assembly Utilizing Common Chemistry for NMR Probe Introduction and Fragment Linkage” (Marquette University, priority 2009, published 2010)
